From patent US20240132513A1, “BENZAZEPINE DERIVATIVES, COMPOSITIONS, AND METHODS FOR TREATING COGNITIVE IMPAIRMENT” (AGENEBIO, INC., priority 2022, published 2024)
Like-named read-outs stand apart in the source and are kept apart here.

Assays:
[1] = biological target: α5β3γ2 GABAA R (Homo sapiens, UniProt P18507+P31644); experiment: Binding activity on GABAA R: inhibition of [3H]Ro15-1788 binding, α5 containing receptor
Summary of the method: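 Displacement of [3H]Ro15-1788 (flumazenil) measured at 4 °C over 1 h using 0.2 mg/ml membrane protein from Ltk cells carrying α5β3γ2 GABAA receptors, expression induced with 0.5 μM dexamethasone for 1 day; buffer pH 7.4 KH2PO4/EDTA/KCl. 10 μM diazepam defined nonspecific binding; filter-trapped radioactivity counted, in triplicate.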

[2] = biological target: T1, GABAA R (α5β2γ2) (Homo sapiens, UniProt P18507+P31644); experiment: Positive allosteric modulator activity: potentiation of EC20 GABA current in oocytes; type: cell-based
T1 construct: expressed in transfected cells
T1 sequence (P31644 32-462): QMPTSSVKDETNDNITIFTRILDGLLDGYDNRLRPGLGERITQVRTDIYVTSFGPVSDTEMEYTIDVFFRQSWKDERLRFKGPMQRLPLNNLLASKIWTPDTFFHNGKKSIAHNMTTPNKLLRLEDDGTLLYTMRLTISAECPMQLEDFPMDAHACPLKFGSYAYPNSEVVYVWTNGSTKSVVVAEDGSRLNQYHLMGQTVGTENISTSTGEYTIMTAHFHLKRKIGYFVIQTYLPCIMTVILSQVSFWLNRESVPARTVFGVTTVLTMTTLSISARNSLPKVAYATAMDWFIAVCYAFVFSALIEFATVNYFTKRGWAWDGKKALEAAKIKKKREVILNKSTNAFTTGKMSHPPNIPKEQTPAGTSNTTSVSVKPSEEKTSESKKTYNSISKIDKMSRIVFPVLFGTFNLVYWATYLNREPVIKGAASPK
T1 sequence (P47870 25-512 partner limits assumed): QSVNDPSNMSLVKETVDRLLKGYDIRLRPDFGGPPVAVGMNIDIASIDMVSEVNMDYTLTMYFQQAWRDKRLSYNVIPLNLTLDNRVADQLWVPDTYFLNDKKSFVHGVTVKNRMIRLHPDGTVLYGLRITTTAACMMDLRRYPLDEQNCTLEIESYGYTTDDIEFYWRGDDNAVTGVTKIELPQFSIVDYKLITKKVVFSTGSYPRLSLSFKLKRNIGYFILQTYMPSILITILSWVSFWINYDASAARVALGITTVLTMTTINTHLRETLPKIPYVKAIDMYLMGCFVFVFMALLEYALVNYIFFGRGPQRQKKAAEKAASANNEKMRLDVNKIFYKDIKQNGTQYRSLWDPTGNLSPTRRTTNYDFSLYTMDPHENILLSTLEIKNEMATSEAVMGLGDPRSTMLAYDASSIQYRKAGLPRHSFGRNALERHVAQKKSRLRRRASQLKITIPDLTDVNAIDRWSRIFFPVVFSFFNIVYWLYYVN
T1 sequence (P18507 40-475): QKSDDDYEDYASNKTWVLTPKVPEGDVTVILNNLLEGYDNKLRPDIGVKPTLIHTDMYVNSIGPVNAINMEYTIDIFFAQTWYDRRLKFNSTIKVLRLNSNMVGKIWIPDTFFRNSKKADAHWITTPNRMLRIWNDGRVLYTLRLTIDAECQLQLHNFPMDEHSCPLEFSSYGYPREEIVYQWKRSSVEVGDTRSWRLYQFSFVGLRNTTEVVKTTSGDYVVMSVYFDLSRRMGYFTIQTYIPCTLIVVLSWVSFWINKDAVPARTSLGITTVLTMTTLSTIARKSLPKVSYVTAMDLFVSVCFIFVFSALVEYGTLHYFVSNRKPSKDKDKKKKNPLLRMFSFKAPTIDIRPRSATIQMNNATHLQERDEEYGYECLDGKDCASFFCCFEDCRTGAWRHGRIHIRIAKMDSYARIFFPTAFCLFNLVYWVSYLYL
Protocol: On day 1, 1 ng/32 nL of GABAA α5β2γ2 cDNA was injected into one oocyte. Test starts on day 2. The cDNA injected to the oocytes was a mix of alpha, beta and gamma, their ratio is 1:1:10 (by weight) and the total weight of the mixed 3 subunits to be injected in one oocyte was 1 ng in 32 nl volume. The injected oocytes can also be tested on day 3. In such case, the cDNA amount injected to the oocytes should be reduced by 20%.
Compounds of the present disclosure were tested using the following procedures.
8 oocytes were placed in 8 chambers of OpusXpress and superfused with Modified Barth's Saline (MBS) at 3 mL/min. Glass electrodes back-filled with 3M KCl (0.5-3 megaohms) were used. Membrane potential of oocytes was voltage-clamped at −60 mV. • 2).
Control Test (Diazepam or Methyl 3,5-Diphenylpyridazine-4-Carboxylate) • 1). New oocytes was used to run new test. • 2). […] Oocytes were washed with MBS for 5-10 min. • 4). […] Itest was divided by IGABA to obtain potentiation (%).
Test Compounds at Multiple Doses • 1). Repeat the above steps 1), 2) and 3) in the control test. • 2). […] Divide Itest by IGABA to obtain potentiation (%). • 3). Discard all tested oocytes, new oocytes were used and the above steps 1) and 2) were repeated to test second concentration of the same compound. Each oocyte was used for only one concentration test for a single test compound. The steps were repeated for other test compounds.

[3] = ranges of the column heads, [3H]Ro15-1788, Ltk cell membranes
[4] = read-out: GABA α5 Functional Data: potentiation
[5] = read-out: GABA α5 Functional Data: potentiation, @ 100 nM, EC20 GABA, ranges of the column heads

Sequence of α5β3γ2 GABAA R (P31644 32-462): as the sequence (P31644 32-462) above
Sequence of α5β3γ2 GABAA R (P28472 26-473 partner): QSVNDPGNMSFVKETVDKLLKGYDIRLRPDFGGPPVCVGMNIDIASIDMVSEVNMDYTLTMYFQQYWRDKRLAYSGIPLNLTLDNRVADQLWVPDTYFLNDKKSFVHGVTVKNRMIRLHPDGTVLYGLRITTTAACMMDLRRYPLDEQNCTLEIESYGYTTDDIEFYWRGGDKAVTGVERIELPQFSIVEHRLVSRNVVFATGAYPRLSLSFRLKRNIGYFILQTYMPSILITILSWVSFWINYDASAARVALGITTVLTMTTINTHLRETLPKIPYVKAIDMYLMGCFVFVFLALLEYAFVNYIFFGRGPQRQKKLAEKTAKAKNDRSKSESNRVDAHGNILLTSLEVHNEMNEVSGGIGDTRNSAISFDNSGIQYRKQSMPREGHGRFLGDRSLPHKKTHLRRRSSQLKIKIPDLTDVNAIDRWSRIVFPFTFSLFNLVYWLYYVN
Sequence of α5β3γ2 GABAA R (P18507 40-475): as the sequence (P18507 40-475) above

Compound: CCn1cc2c(n1)-c1cc(Cl)ccc1-n1cnc(-c3noc(C(C)C)n3)c1C2 [Compound 175]
- Ki [1, 3]: < 100 nM
- activation at 0.1 µM [2, 4]: 20 to 50%

Compound: Clc1ccc2c(c1)-c1[nH]ncc1Cc1c(-c3ncco3)ncn1-2 [Compound 55]
- Ki [1]: < 100 nM
- activation at 0.1 µM [2, 5]: 5 to 20%

Compound: COc1ccc2c(c1)-c1nn(Cc3ccc(F)cc3)cc1Cc1c(-c3nc(C)no3)ncn1-2 [Compound 23]
- Ki [1]: < 100 nM
- activation at 0.1 µM [2, 5]: 5 to 20%

Compound: CC(C)c1noc(-c2ncn3c2Cc2cn(C)nc2-c2cc(Cl)ccc2-3)n1 [Compound 103]
- Ki [1, 3]: < 100 nM
- activation at 0.1 µM [2, 4]: 5 to 20%

Compound: CCn1cc2c(n1)-c1cc(Cl)ccc1-n1cnc(-c3noc(COC(C)(C)C)n3)c1C2 [Compound 197]
- Ki [1]: < 100 nM
- activation at 0.1 µM [2, 5]: 5 to 20%

Compound: Cn1cc2c(n1)-c1cc(Cl)ccc1-n1cnc(-c3noc(COCC(F)(F)F)n3)c1C2 [Compound 217]
- Ki [1]: < 100 nM
- activation at 0.1 µM [2, 5]: 20 to 50%

Compound: COc1ccc2c(c1)-c1nn(C)cc1Cc1c(-c3noc(C4(OC)CC4)n3)ncn1-2 [Compound 203]
- Ki [1]: < 100 nM
- activation at 0.1 µM [2, 5]: 20 to 50%

Compound: COc1ccc2c(c1)-c1nn(C)cc1Cc1c(-c3noc(C(F)(F)F)n3)ncn1-2 [Compound 130]
- Ki [1]: < 100 nM
- activation at 0.1 µM [2, 5]: > 50%

Compound: COc1ccc2c(c1)-c1nn(CC3CCCO3)cc1Cc1c(-c3nc(C(F)(F)F)no3)ncn1-2 (stereo not shown) [Compound 264]
- Ki [1]: < 100 nM
- activation at 0.1 µM [2, 5]: 5 to 20%

Compound: COc1ccc2c(c1)-c1[nH]ncc1Cc1c(C#Cc3ccccn3)ncn1-2 [Compound 90]
- Ki [1, 3]: < 100 nM
- activation at 0.1 µM [2, 4]: 20 to 50%

Compound: Clc1ccc2c(c1)-c1[nH]ncc1Cc1c(-c3nc(C4CCCCC4)no3)ncn1-2 [Compound 123]
- Ki [1]: < 100 nM
- activation at 0.1 µM [2, 5]: 5 to 20%

Compound: COc1ccc2c(c1)-c1nn(CC3COC3)cc1Cc1c(-c3nc(COC4CCOC4)no3)ncn1-2 (stereo not shown) [Compound 310]
- Ki [1]: < 100 nM
- activation at 0.1 µM [2, 5]: 20 to 50%

Compound: COc1ccc2c(c1)-c1nn(Cc3cccnc3)cc1Cc1c(-c3nc(C(C)C)no3)ncn1-2 [Compound 125]
- Ki [1]: < 100 nM
- activation at 0.1 µM [2, 5]: 20 to 50%

Compound: COCCn1cc2c(n1)-c1cc(OC)ccc1-n1cnc(-c3noc(COCC(F)(F)F)n3)c1C2 [Compound 313]
- Ki [1]: < 100 nM
- activation at 0.1 µM [2, 5]: 5 to 20%

Compound: COc1ccc2c(c1)-c1[nH]ncc1Cc1c(-c3nc(C(C)C)no3)ncn1-2 [Compound 10]
- Ki [1]: < 100 nM
- activation at 0.1 µM [2, 5]: 20 to 50%

Compound: Clc1ccc2c(c1)-c1[nH]ncc1Cc1c(-c3cnco3)ncn1-2 [Compound 93]
- Ki [1, 3]: < 100 nM
- activation at 0.1 µM [2, 4]: 5 to 20%

Compound: Clc1ccc2c(c1)-c1nn(CC3CCCO3)cc1Cc1c(-c3noc(C4CCOC4)n3)ncn1-2 (stereo not shown) [Compound 308]
- Ki [1]: < 100 nM
- activation at 0.1 µM [2, 5]: 20 to 50%

Compound: COc1ccc2c(c1)-c1nn(C)cc1Cc1c(-c3nnc(C)o3)ncn1-2 [Compound 290]
- Ki [1]: < 100 nM
- activation at 0.1 µM [2, 5]: 20 to 50%

Compound: Cn1cc2c(n1)-c1cc(Cl)ccc1-n1cnc(-c3nc(CN4CCOCC4)co3)c1C2 [Compound 276]
- Ki [1]: < 100 nM
- activation at 0.1 µM [2, 5]: 20 to 50%

Compound: COc1ccc2c(c1)-c1nn(C)cc1Cc1c(-c3nc(C(C)(C)C)no3)ncn1-2 [Compound 118]
- Ki [1]: < 100 nM
- activation at 0.1 µM [2, 5]: 20 to 50%

Compound: Cn1cc2c(n1)-c1cc(Cl)ccc1-n1cnc(C#CC(C)(C)C)c1C2 [Compound 101]
- Ki [1]: < 100 nM
- activation at 0.1 µM [2, 5]: 20 to 50%

Compound: COCC1COC(c2ncn3c2Cc2cn(C)nc2-c2cc(Cl)ccc2-3)=N1 (stereo not shown) [Compound 189]
- Ki [1]: < 100 nM
- activation at 0.1 µM [2, 5]: 20 to 50%

Compound: COc1ccc2c(c1)-c1nn(C)cc1Cc1c(-c3nc(C4CC4)no3)ncn1-2 [Compound 120]
- Ki [1, 3]: < 100 nM
- activation at 0.1 µM [2, 4]: 20 to 50%

Compound: COCc1noc(-c2ncn3c2Cc2cn(C)nc2-c2cc(OC)ccc2-3)n1 [Compound 170]
- Ki [1]: < 100 nM
- activation at 0.1 µM [2, 5]: 20 to 50%

Compound: COCc1noc(-c2ncn3c2Cc2cn(CCOC(F)(F)F)nc2-c2cc(OC)ccc2-3)n1 [Compound 315]
- Ki [1]: < 100 nM
- activation at 0.1 µM [2, 5]: 20 to 50%

Compound: Cn1cc2c(n1)-c1cc(Cl)ccc1-n1cnc(-c3cnn(Cc4ccccc4)c3)c1C2 [Compound 163]
- Ki [1]: < 100 nM
- activation at 0.1 µM [2, 5]: 5 to 20%

Compound: CCn1cc2c(n1)-c1cc(OC)ccc1-n1cnc(-c3noc(C(C)C)n3)c1C2 [Compound 156]
- Ki [1]: < 100 nM
- activation at 0.1 µM [2, 5]: 20 to 50%

Compound: Clc1ccc2c(c1)-c1[nH]ncc1Cc1c(-c3nc(C4CCCC4)no3)ncn1-2 [Compound 115]
- Ki [1]: < 100 nM
- activation at 0.1 µM [2, 5]: 5 to 20%

Compound: CCn1cc2c(n1)-c1cc(OC)ccc1-n1cnc(-c3noc(C(F)(F)F)n3)c1C2 [Compound 158]
- Ki [1, 3]: < 100 nM
- activation at 0.1 µM [2, 4]: 5 to 20%

Compound: COCc1nc(-c2ncn3c2Cc2cn(CC4CCCO4)nc2-c2cc(OC)ccc2-3)no1 (stereo not shown) [Compound 293]
- Ki [1]: < 100 nM
- activation at 0.1 µM [2, 5]: 20 to 50%

Compound: COc1ccc2c(c1)-c1nn(C)cc1Cc1c(-c3ncc(C)o3)ncn1-2 [Compound 286]
- Ki [1]: < 100 nM
- activation at 0.1 µM [2, 5]: 5 to 20%

Compound: CCn1cc2c(n1)-c1cc(OC)ccc1-n1cnc(-c3noc(CN(C)C)n3)c1C2 [Compound 248]
- Ki [1]: < 100 nM
- activation at 0.1 µM [2, 5]: 20 to 50%

Compound: CC(C)c1nc(-c2ncn3c2Cc2cn(C(C)C)nc2-c2cc(Cl)ccc2-3)no1 [Compound 150]
- Ki [1]: < 100 nM
- activation at 0.1 µM [2, 5]: 20 to 50%

Compound: COc1ccc2c(c1)-c1nn(C)cc1Cc1c(-c3nc(C4COC4)no3)ncn1-2 [Compound 239]
- Ki [1]: < 100 nM
- activation at 0.1 µM [2, 5]: 20 to 50%

Compound: Clc1ccc2c(c1)-c1[nH]ncc1Cc1c(-c3nc(C4CC4)no3)ncn1-2 [Compound 105]
- Ki [1]: < 100 nM
- activation at 0.1 µM [2, 5]: 20 to 50%

Compound: Cn1cc2c(n1)-c1cc(Cl)ccc1-n1cnc(-c3nc(C4CC4)no3)c1C2 [Compound 127]
- Ki [1]: < 100 nM
- activation at 0.1 µM [2, 5]: 20 to 50%

Compound: COCc1coc(-c2ncn3c2Cc2cn(C)nc2-c2cc(OC)ccc2-3)n1 [Compound 269]
- Ki [1]: < 100 nM
- activation at 0.1 µM [2, 5]: 5 to 20%

Compound: COc1ccc2c(c1)-c1nn(CC3CCOC3)cc1Cc1c(-c3ncc(C)o3)ncn1-2 (stereo not shown) [Compound 287]
- Ki [1, 3]: < 100 nM
- activation at 0.1 µM [2, 4]: 20 to 50%

Compound: CCn1cc2c(n1)-c1cc(Cl)ccc1-n1cnc(-c3nc(CN4CCCC4)no3)c1C2 [Compound 266]
- Ki [1, 3]: < 100 nM
- activation at 0.1 µM [2, 5]: 5 to 20%

Compound: Clc1ccc2c(c1)-c1nn(CC3CCCO3)cc1Cc1c(-c3nc(C4CCOC4)no3)ncn1-2 (stereo not shown) [Compound 281]
- Ki [1]: < 100 nM
- activation at 0.1 µM [2, 5]: 5 to 20%

Compound: FC(F)(F)c1noc(-c2ncn3c2Cc2cn(C4CCOC4)nc2-c2cc(Cl)ccc2-3)n1 (stereo not shown) [Compound 228]
- Ki [1]: < 100 nM
- activation at 0.1 µM [2, 5]: 5 to 20%

Compound: COc1ccc2c(c1)-c1[nH]ncc1Cc1c(C#CC(C)(C)C)ncn1-2 [Compound 73]
- Ki [1]: < 100 nM
- activation at 0.1 µM [2, 5]: 5 to 20%

Compound: Clc1ccc2c(c1)-c1nn(CC3CC3)cc1Cc1c(-c3nc(C4CC4)no3)ncn1-2 [Compound 129]
- Ki [1]: < 100 nM
- activation at 0.1 µM [2, 5]: 20 to 50%

Compound: Cn1cc2c(n1)-c1cc(Cl)ccc1-n1cnc(-c3nc(C(C)(C)C)no3)c1C2 [Compound 113]
- Ki [1]: < 100 nM
- activation at 0.1 µM [2, 5]: 20 to 50%

Compound: COc1ccc2c(c1)-c1[nH]ncc1Cc1c(-c3nc(C)no3)ncn1-2 [Compound 9]
- Ki [1, 3]: < 100 nM
- activation at 0.1 µM [2, 4]: 5 to 20%

Compound: COc1ccc2c(c1)-c1nn(C)cc1Cc1c(-c3noc(C)n3)ncn1-2 [Compound 131]
- Ki [1]: < 100 nM
- activation at 0.1 µM [2, 5]: 5 to 20%

Compound: COc1ccc2c(c1)-c1nn(CC3CCOC3)cc1Cc1c(-c3nc(C(C)C)no3)ncn1-2 (stereo not shown) [Compound 245]
- Ki [1]: < 100 nM
- activation at 0.1 µM [2, 5]: 20 to 50%
